The nature of series [1]: Solubility in water. It counts as physicochemical.
Series [2] can be described thus: Oxygen radical absorbance capacity assay (ORAC). The format is biochemical. As to conditions: tested both individually and in solution. The protocol: Azo-initiators are considered to produce the peroxyl radical by heating, which damages the fluorescent molecule, resulting in the loss of fluorescence. Antioxidants are considered to protect the fluorescent molecule from the oxidative degeneration. By quantifying the decay of fluorescence using a fluorometer, the degree of protection is determined comparing with a standard control antioxidant Trolox. […] Equipment that can automatically measure and calculate the capacity is commercially available, such as the VarioSkan flash microplate reader from Thermo Scientific. To test samples by using ORAC, compounds are dissolved into water-based NaH2PO4 buffer.

The structures appear in SMILES notation.

As to `O=C(O)[C@H]1O[C@@H](Oc2cc3oc(-c4ccccc4)cc(=O)c3c(O)c2O)[C@H](O)[C@@H](O)[C@@H]1O` [baicalin], the solubility in water result in series [1] is “very low”.

As for `Cn1c(=O)c2c(ncn2C)n(C)c1=O` [caffeine], in series [2], the “influence of hydrotrope on the capacity of antioxidant compounds” value is reported as “no influence”.

In the case of `NC(=O)c1cccnc1` [nicotinamide], the “influence of hydrotrope on the capacity of antioxidant compounds” value in series [2] is “no influence”.

Source of the values: patent publication US9072919B2, “Synergistic antioxidant cosmetic compositions containing at least one of baicalin and taxifolin, at least one of caffeine and nicotinamide, at least one of vitamin C and resveratrol and ferulic acid” (priority 2012, dated 2015).
